The source made the active and inactive calls. No cut-off for these calls is given here.
Experiments:
[1] = biological target: T1, Leukotriene A-4 hydrolase (Homo sapiens) (UniProt P09960); conditions: at 10 µM
T1 sequence (whole entry): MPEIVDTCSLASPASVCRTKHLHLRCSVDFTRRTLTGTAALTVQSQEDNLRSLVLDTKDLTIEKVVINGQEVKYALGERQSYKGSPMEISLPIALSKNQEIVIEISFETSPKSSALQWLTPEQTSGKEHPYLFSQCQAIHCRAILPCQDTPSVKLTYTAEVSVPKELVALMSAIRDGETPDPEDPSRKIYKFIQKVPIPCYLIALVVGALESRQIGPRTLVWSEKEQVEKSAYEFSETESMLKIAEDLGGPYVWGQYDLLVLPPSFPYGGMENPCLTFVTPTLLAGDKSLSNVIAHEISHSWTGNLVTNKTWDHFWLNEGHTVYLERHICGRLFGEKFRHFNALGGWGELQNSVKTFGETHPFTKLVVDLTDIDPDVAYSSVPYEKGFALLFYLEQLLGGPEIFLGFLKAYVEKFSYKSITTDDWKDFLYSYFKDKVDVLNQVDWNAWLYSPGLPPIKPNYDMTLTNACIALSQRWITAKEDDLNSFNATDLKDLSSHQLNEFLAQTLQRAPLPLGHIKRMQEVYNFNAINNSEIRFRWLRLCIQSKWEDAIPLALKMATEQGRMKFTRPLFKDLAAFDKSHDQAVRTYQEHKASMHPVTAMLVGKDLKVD
Description: Inhibition of recombinant human LTA4H Epoxide Hydrolase expressed in Escherichia coli BL21 (DE3) pLysS at 10 uM preincubated for 10 mins followed by addition of LTA4 as substrate measured after 15 mins by reverse-phase HPLC analysis

[2] = biological target: T2, Polyunsaturated fatty acid 5-lipoxygenase (Homo sapiens) (UniProt P09917); assay: Inhibition of recombinant human N-terminal His-tagged 5-LOX expressed in Escherichia coli assessed as conversion of arachidonic acid to HpETEs measured for 300 secs by UV-visible spectrophotometric analysis
T2 sequence (whole entry): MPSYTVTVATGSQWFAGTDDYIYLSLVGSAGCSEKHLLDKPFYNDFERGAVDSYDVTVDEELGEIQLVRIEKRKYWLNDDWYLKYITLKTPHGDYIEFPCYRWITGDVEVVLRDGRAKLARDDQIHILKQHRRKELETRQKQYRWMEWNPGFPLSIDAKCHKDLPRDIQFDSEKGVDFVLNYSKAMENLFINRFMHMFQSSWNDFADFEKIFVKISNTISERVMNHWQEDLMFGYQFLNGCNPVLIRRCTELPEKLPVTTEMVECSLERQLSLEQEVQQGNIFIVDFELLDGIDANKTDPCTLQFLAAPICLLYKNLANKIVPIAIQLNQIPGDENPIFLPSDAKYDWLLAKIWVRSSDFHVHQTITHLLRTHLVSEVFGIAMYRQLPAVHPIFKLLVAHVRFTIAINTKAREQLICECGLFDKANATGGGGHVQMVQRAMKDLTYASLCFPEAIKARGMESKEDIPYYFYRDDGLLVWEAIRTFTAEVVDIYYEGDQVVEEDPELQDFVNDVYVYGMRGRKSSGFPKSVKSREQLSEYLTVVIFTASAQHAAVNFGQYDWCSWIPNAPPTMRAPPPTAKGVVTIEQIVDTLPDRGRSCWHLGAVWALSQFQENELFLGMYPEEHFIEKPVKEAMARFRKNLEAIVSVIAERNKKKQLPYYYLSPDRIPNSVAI

[3] = biological target: T3, Leukotriene A-4 hydrolase (Homo sapiens, UniProt P09960); assay: Inhibition of recombinant human LTA4H aminopeptidase activity expressed in Escherichia coli BL21 (DE3) pLysS assessed as formation of p-NA from Ala-p-NA preincubated for 10 mins followed by substrate addition measured after 10 mins; assay type: ADME
T3 sequence (P09960 whole entry): T1 sequence (whole entry)

Mus musculus [4] = assay: Protection against BLM-induced lung fibrosis in C57BL/6 mouse assessed as TGF-beta1 level at 25 mg/kg, ip qd for 7 days post BLM challenge measured on day 14 by ELISA (reference value: 99.30 pg/ml); assay type: functional
Mus musculus [5] = assay: Anti-inflammatory activity in LPS-induced C57BL/6 mouse model of acute lung injury assessed as reduction in total number of leucocytes in BALF at 25 mg/kg, ip pretreated for 1 hr followed LPS challenge measured after 24 hrs; assay type: functional, organism-based
Mus musculus [6] = assay: Anti-inflammatory activity in BLM-induced C57BL/6 mouse model of acute lung neutrophilic inflammation assessed as protein concentration in BALF at 25 mg/kg, ip qd for 7 days post BLM challenge measured on day 7 (reference value: 2.39 mg/ml); assay type: functional
[7] = biological target: T1, Leukotriene A-4 hydrolase (Homo sapiens)
Description: Binding affinity to recombinant human LTA4H hydrolase assessed as change in melting temperature at 50 uM by SYPRO orange dye-based thermofluor assay

[8] = biological target: T4, Polyunsaturated fatty acid lipoxygenase ALOX15 (Homo sapiens) (UniProt P16050); assay: Inhibition of recombinant human N-terminal His-tagged 15-LOX-1 expressed in Escherichia coli using arachidonic acid as substrate measured every 2 min intervals for 20 mins by fluorescence analysis
T4 sequence (whole entry): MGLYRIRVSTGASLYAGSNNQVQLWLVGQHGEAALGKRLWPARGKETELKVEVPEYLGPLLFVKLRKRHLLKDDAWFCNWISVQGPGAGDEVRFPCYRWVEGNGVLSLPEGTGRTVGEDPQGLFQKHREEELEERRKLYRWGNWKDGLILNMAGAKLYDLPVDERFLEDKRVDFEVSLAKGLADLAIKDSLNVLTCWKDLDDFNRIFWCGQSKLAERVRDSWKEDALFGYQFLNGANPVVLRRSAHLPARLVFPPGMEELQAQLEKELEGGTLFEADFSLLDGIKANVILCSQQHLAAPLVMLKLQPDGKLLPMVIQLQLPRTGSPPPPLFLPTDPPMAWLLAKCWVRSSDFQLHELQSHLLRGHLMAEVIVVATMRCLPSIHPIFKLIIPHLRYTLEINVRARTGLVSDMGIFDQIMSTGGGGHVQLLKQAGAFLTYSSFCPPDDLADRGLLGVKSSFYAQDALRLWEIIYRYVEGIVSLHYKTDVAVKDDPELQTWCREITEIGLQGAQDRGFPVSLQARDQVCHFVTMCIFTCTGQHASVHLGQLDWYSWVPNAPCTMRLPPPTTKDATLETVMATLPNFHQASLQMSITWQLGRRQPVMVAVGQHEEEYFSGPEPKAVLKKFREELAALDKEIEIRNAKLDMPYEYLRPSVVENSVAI

Mus musculus [9] = assay: Anti-inflammatory activity in BLM-induced C57BL/6 mouse model of acute lung neutrophilic inflammation assessed as reduction in number of neutrophils in BALF at 10 and 25 mg/kg, ip qd for 7 days post BLM challenge measured on day 7; assay type: functional, organism-based
Mus musculus [10] = assay: Anti-inflammatory activity in BLM-induced C57BL/6 mouse model of acute lung neutrophilic inflammation assessed as reduction in number of lymphocytes in BALF at 10 and 25 mg/kg, ip qd for 7 days post BLM challenge measured on day 7; assay type: functional, organism-based
Mus musculus [11] = assay: Anti-inflammatory activity in BLM-induced C57BL/6 mouse model of acute lung neutrophilic inflammation assessed as reduction in number of lymphocytes in BALF at 25 and 50 mg/kg, ip qd for 7 days post BLM challenge measured on day 7; assay type: functional, organism-based

Row | SMILES | inhibition [1] [%] | INH [2] [µM] | IC50 [3] [nM] | Activity (Mus musculus [4]) [pg/mL] | Activity (Mus musculus [5]) | Activity (Mus musculus [6]) [mg/mL] | ΔTm [7] [°C] | INH [8] [µM] | Activity (Mus musculus [9]) | Activity (Mus musculus [10]) | Activity (Mus musculus [11])
1 | CN(C)c1ccc(C(=O)NCCCCCCC(=O)NO)cc1 | > 50 | > 50 | 300 | 38.22 | Active | 1.92 | 2.35 | > 50 | Active | Active | 
2 | O=C(CCCCCCC(=O)Nc1ccccc1)NO [VORINOSTAT] | > 50 | > 50 | 1670 |  | Active |  | 1.47 | > 50 | Active | Active | Active

Reference: ChEMBL document CHEMBL4007425, “Drug Repurposing of Histone Deacetylase Inhibitors That Alleviate Neutrophilic Inflammation in Acute Lung Injury and Idiopathic Pulmonary Fibrosis via Inhibiting Leukotriene A4 Hydrolase and Blocking LTB4 Biosynthesis” (J Med Chem, 2017)
